The target in experiment [1] is T1, human recombinant serotonin (5-Hydroxytryptamine) 5-HT7 receptor (Homo sapiens, UniProt P34969).
T1 construct: expressed in transfected cells; host or cells: CHO
Briefly: Serotonin 5-HT7 radioligand binding ([3H]LSD). As to conditions: compound at 0.1 μM, CHO cells; for inhibition at 0.1 µM: read-out: Percentage inhibition of ligand binding, Serotonin 5-HT7. Here is the method:
To evaluate in radioligand binding assays the activity of compounds of the invention, human recombinant serotonin (5-Hydroxytryptamine) 5-HT7 receptor expressed in Chinese hamster ovary (CHO) cells (Roth, B. et al, J. Pharmacol. Exp. Ther. 268:1403, 1994; Shen, Y. et al, J. Biol. Chem. 268:18200, 1993) in a modified Tris-HCl buffer (50 mM Tris-HCl, pH 7.4, 10 mM MgCl2, 0.5 mM EDTA) was used. Compounds of invention were incubated with 5.5 nM [^3H] Lysergic acid diethylamide (LSD) for 2 h at 25° C. Non-specific binding was estimated in the presence of 10 μM Serotonin (5-HT). Receptor proteins were filtered and washed, the filters were then counted to determine [^3H]LSD specifically bound. Compounds were screened at 1 μM or lower, using 1% DMSO as vehicle. Biochemical assay results are presented as the percent inhibition of specific binding in Table 4.

Experiment [2] concerns the target T2, human recombinant serotonin (5-Hydroxytryptamine) 5-HT2C receptor (Homo sapiens, UniProt P28335).
T2 construct: expressed in transfected cells; host or cells: CHO-K1
T2 sequence (P28335 33-458): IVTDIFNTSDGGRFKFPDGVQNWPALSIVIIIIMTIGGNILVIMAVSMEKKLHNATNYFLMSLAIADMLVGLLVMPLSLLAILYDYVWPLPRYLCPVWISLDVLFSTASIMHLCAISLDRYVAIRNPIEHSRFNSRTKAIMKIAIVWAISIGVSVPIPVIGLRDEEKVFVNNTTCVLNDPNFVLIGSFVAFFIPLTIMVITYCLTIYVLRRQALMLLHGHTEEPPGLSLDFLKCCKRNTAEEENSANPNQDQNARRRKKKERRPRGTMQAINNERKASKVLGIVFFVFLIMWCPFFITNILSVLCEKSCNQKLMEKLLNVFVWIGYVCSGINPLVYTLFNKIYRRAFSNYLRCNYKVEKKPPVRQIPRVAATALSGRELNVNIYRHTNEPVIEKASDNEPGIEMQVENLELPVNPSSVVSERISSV
The experiment is described as follows: Serotonin 5-HT2C radioligand binding ([3H]Mesulergine). The following applies: compound at 0.1 μM, CHO K1 cells; for inhibition at 0.1 µM: read-out: Percentage inhibition of ligand binding, Serotonin 5-HT2C. Here is the method:
To evaluate in radioligand binding assays the activity of compounds of the invention, human recombinant serotonin (5-Hydroxytryptamine) 5-HT2C receptor expressed in Chinese hamster ovary (CHO) K1 cells (Wolf, W. et al, J. Neurochem. 69:1449, 1997) in a modified Tris-HCl buffer (50 mM Tris-HCl, pH 7.4, 0.1% Ascorbic Acid, 10 μM Pargyline) was used. Compounds of the invention were incubated with 1 nM [^3H]Mesulergine for 60 min at 25° C. Non-specific binding was estimated in the presence of 1 μM Mianserin. Receptor proteins were filtered and washed, the filters were then counted to determine [^3H]Mesulergine specifically bound. Compounds were screened at 1 μM or lower, using 1% DMSO as vehicle. Biochemical assay results are presented as the percent inhibition of specific binding in Table 4.

Experiment [3] deals with T3, human recombinant serotonin (5-Hydroxytryptamine) 5-HT6 receptor (Homo sapiens, UniProt P50406).
T3 construct: expressed in transfected cells; host or cells: HeLa
T3 sequence (P50406 whole entry): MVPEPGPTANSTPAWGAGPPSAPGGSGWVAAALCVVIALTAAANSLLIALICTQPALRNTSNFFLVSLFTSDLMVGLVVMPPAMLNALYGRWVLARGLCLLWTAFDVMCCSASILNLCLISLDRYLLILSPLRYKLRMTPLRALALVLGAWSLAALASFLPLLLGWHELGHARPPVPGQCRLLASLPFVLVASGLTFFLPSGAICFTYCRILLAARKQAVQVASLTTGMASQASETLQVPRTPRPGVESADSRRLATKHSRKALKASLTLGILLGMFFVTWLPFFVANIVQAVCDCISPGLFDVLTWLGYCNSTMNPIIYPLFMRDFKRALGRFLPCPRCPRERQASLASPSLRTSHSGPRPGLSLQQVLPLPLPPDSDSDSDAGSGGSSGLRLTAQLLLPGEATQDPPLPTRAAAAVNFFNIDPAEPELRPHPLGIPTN
The experiment is described as follows: Serotonin 5-HT6 radioligand binding ([3H]LSD). The following applies: compound at 0.1 μM, HeLa cells; for inhibition at 0.1 µM: read-out: Percentage inhibition of ligand binding, Serotonin 5-HT6; for Percentage inhibition of ligand binding, Serotonin 5-HT6: 0.1 µM. How it is done: To evaluate in radioligand binding assays the activity of compounds of the invention, human recombinant serotonin (5-Hydroxytryptamine) 5-HT6 receptor expressed in human HeLa cells (Monsma, F. Jr. et al, Mol. Pharmacol. 43:320, 1993) in a modified Tris-HCl buffer (50 mM Tris-HCl, pH 7.4, 150 mM NaCl, 2 mM Ascorbic Acid, 0.001% BSA) was used. Compounds of the invention were incubated with 1.5 nM [3H]Lysergic acid diethylamide (LSD) for 120 min at 37° C. Non-specific binding was estimated in the presence of 5 μM Serotonin (5-HT). Receptor proteins were filtered and washed, the filters were then counted to determine [3H]LSD specifically bound. Compounds were screened at 1 μM or lower, using 1% DMSO as vehicle. Biochemical assay results are presented as the percent inhibition of specific binding in Table 4.

Experiment [4] addresses T4, human recombinant dopamine D2L receptor (Homo sapiens, UniProt P14416).
T4 construct: expressed in transfected cells; host or cells: CHO
Briefly: Dopamine D2L radioligand binding ([3H]Spiperone). The following applies: compound at 1 μM, CHO cells; for inhibition at 1 µM: read-out: Percentage inhibition of ligand binding, Dopamine D2L; for Percentage inhibition of ligand binding, Dopamine D2L: 1 µM. Here is the method:
To evaluate in radioligand binding assays the activity of compounds of the invention, human recombinant dopamine D2L receptor expressed in Chinese hamster ovary (CHO) cells (Grandy, D. et al, Proc. Natl. Acad. Sci. USA. 86:9762, 1989; Hayes, G. et al, Mol. Endocrinol. 6:920, 1992) in a modified Tris-HCl buffer (50 mM Tris-HCl, pH 7.4, 1.4 mM Ascorbic Acid, 0.001% BSA, 150 mM NaCl) was used. Compounds of the invention were incubated with 0.16 nM [^3H]Spiperone for 120 min at 25° C. Non-specific binding was estimated in the presence of 10 μM Haloperidol. Receptor proteins were filtered and washed, the filters were then counted to determine [^3H]Spiperone specifically bound. Compounds were screened at 1 μM or lower, using 1% DMSO as vehicle. Biochemical assay results are presented as the percent inhibition of specific binding in Table 3.

In experiment [5] the target is T5, human recombinant histamine H1 receptor (Homo sapiens, UniProt P35367).
T5 construct: expressed in transfected cells; host or cells: CHO-K1
T5 sequence (P35367 whole entry): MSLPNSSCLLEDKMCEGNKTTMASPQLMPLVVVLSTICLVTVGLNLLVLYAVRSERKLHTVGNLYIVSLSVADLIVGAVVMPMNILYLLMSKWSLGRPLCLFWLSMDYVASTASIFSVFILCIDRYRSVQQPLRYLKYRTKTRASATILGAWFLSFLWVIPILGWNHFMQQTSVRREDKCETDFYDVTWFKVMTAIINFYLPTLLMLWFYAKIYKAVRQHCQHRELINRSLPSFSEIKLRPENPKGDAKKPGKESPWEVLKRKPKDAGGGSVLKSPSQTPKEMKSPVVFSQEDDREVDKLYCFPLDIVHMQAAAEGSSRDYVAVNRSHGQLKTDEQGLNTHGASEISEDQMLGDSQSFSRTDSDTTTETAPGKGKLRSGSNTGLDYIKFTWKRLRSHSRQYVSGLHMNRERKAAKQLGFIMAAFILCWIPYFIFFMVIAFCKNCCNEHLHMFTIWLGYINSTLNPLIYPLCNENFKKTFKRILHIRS
The experiment is described as follows: Histamine H1 radioligand binding ([3H]Pyrilamine). The following applies: compound at 1 μM, 1.2 nM [3H]Pyrilamine, CHO K1 cells; for inhibition at 1 µM: read-out: Histamine H1 Binding (1 μM), percentage inhibition. Here is the method: To evaluate in radioligand binding assays the activity of compounds of the invention, human recombinant histamine H1 receptor expressed in Chinese hamster ovary (CHO) K1 cells (De Backer, M. et al, Biochem. Biophys. Res. Comm. 197(3):1601, 1993) in a modified Tris-HCl buffer (50 mM Tris-HCl, pH 7.4, 2 mM MgCl2, 100 mM NaCl, 250 mM Sucrose) was used. Compounds of the invention were incubated with 1.2 nM [^3H]Pyrilamine for 180 min at 25° C. Non-specific binding was estimated in the presence of 1 μM Pyrilamine. Receptor proteins were filtered and washed, the filters were then counted to determine [^3H]Pyrilamine specifically bound. Compounds were screened at 1 μM or lower, using 1% DMSO as vehicle. Biochemical assay results are presented as the percent inhibition of specific binding in Table 2.

The target of experiment [6] is T6, human recombinant serotonin (5-Hydroxytryptamine) 5-HT2A receptor (Homo sapiens, UniProt P28223).
T6 construct: expressed in transfected cells; host or cells: CHO-K1
T6 sequence (P28223 whole entry): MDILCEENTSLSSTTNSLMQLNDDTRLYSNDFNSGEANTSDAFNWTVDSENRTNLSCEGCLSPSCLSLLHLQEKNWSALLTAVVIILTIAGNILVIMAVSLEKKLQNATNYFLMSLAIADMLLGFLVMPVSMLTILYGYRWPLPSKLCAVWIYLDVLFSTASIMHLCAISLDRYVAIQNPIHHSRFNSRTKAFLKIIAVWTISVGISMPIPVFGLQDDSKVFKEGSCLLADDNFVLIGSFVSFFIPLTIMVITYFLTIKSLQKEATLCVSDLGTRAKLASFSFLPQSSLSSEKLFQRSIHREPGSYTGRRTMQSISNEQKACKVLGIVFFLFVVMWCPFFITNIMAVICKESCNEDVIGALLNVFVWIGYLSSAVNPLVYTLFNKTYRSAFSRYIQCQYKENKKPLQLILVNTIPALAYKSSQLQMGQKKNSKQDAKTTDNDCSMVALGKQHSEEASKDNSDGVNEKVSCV
Briefly: Serotonin 5-HT2A radioligand binding ([3H]Ketanserin). As to conditions: compound at 0.1 μM, CHO K1 cells; for inhibition at 0.1 µM: read-out: Percentage inhibition of ligand binding, Serotonin 5-HT2A. Here is the method:
To evaluate in radioligand binding assays the activity of compounds of the invention, human recombinant serotonin (5-Hydroxytryptamine) 5-HT2A receptor expressed in Chinese hamster ovary (CHO) K1 cells (Bonhaus, D. et al, Br. J. Pharmacol. 115:622, 1995; Saucier, C. et al, J. Neurochem. 68:1998, 1997) in a 50 mM Tris-HCl buffer, pH 7.4, was used. Compounds of the invention were incubated with 0.5 nM [^3H]Ketanserin for 60 min at 25° C. Non-specific binding was estimated in the presence of 1 μM Mianserin. Receptor proteins were filtered and washed, the filters were then counted to determine [^3H]Ketanserin specifically bound. Compounds were screened at 1 μM or lower, using 1% DMSO as vehicle. Biochemical assay results are presented as the percent inhibition of specific binding in Table 4.

T1 sequence (P34969 whole entry): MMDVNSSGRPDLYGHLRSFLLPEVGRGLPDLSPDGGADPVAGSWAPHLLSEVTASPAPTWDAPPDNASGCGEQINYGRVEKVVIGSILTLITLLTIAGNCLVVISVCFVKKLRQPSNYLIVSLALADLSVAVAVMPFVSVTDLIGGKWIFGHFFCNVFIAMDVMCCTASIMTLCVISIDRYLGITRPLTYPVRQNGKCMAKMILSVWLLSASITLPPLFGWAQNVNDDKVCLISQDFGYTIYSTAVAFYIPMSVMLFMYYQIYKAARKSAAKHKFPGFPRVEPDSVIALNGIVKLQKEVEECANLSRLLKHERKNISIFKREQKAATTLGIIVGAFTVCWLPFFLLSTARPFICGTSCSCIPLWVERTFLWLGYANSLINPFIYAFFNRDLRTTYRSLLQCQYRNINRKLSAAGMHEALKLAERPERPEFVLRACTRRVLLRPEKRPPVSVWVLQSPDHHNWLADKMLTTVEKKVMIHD
T4 sequence (P14416 whole entry): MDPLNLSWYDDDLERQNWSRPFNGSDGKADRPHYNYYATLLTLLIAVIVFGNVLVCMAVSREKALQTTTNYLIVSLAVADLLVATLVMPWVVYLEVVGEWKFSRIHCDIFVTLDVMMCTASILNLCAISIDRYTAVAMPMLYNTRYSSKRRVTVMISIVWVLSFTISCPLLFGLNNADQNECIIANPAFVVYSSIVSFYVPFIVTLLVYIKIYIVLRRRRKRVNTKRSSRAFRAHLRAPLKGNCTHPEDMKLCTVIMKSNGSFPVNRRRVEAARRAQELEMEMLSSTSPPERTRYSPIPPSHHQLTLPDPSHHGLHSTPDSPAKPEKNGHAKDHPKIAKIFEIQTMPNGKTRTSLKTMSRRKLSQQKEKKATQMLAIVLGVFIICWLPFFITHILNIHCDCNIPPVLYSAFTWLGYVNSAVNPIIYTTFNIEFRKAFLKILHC

A word on the inhibition: it is the change of the read-out against control, counted positive when it falls. Regarding `Cc1ccc2c(c1)c1c3n2CC(c2ccc(F)cc2)=CCC3(C)CN(C)C1` (stereo not drawn) [Compound 1, 6-(4-fluoro-phenyl)-2,3a,10-trimethyl-1,2,3,3a,4,7-hexahydro-2,7a-diaza-cyclohepta[jk]fluorene], the inhibition at 0.1 µM is 26% in experiment [1], 45% in experiment [2], 8% in experiment [3] and 56% in experiment [6]. For the same compound, the inhibition at 1 µM in experiment [4] was determined as 12%; in experiment [5] it was 11%.

For the compound `Cc1ccc2c(c1)c1c3n2CC(c2ccc(F)cc2)CC3(C)CN(C)C1` (stereo not drawn) [Compound 2], in experiment [1] (0.1 µM), the “Percentage inhibition of ligand binding, Serotonin 5-HT7” value was 34%. For the same compound, in experiment [2] (0.1 µM), the “Percentage inhibition of ligand binding, Serotonin 5-HT2C” value was determined as 36%. Besides, the “Percentage inhibition of ligand binding, Serotonin 5-HT6” value in experiment [3] was 12%. For the same compound, the “Percentage inhibition of ligand binding, Dopamine D2L” value in experiment [4] was 13%. For the same compound, the “Histamine H1 Binding (1 μM), percentage inhibition” value in experiment [5] worked out at 63%. Further, the “Percentage inhibition of ligand binding, Serotonin 5-HT2A” value in experiment [6] (0.1 µM) was 49%.

Take `Cc1ccc2c(c1)c1c3n2CCC(c2ccc(F)cc2)CC3(C)CN(C)C1` (stereo not drawn) [Compound 3]: the inhibition at 0.1 µM in experiment [1] is 46%; in experiment [2] it was 39%; in experiment [3], 10%; in experiment [6] it was 45%. Moreover, the inhibition at 1 µM is 22% in experiment [4] and 78% in experiment [5].

Take `Cc1ccc2c(c1)c1c3n2CC(c2ccncc2)CC3(C)CN(C)C1` (stereo not drawn) [Compound 4]: the inhibition at 0.1 µM came to 38% in experiment [1], 35% in experiment [2], 6% in experiment [3] and 47% in experiment [6]. The results for the inhibition at 1 µM in experiment [4] and in experiment [5] were 14% and 12%, respectively.

On to `Cc1ccc2c(c1)c1c3n2CC=C(c2ccc(F)cc2)CC3(C)CN(C)C1` (stereo not drawn) [Compound 5], for which the inhibition at 0.1 µM in experiment [1] came to 35%; in experiment [2], 32%; in experiment [3] it was 39%; in experiment [6], 54%. The inhibition at 1 µM in experiment [4] is 60%; in experiment [5], 94%.

For `Cc1ccc2c(c1)c1c3n2CC(c2ccc(F)cc2)CC3(C)CN(C)C1` (stereo not drawn) [Compound 6], the results for the inhibition at 0.1 µM in experiment [1], in experiment [2] and in experiment [6] were 39%, 38% and 54%, respectively. In experiment [3], the “Percentage inhibition of ligand binding, Serotonin 5-HT6” value amounted to 35%. Also, in experiment [4], the “Percentage inhibition of ligand binding, Dopamine D2L” value is given as 6%. Besides, the inhibition at 1 µM in experiment [5] turned out to be 51%.

Take `Cc1ccc2c(c1)c1c3n2CC(c2ccc(F)cc2)CCC3(C)CN(C)C1` (stereo not drawn) [Compound 7, 6-(4-fluoro-phenyl)-2,3a,10-trimethyl-1,2,3,3a,4,5,6,7-octahydro-2,7a-diaza-cyclohepta[jk]fluorene]: the inhibition at 0.1 µM in experiment [1] is 54%; in experiment [2] it was 41%; in experiment [3] it was 6%; in experiment [6] it was 57%. In addition, the inhibition at 1 µM in experiment [4] was determined as 0%; in experiment [5], 19%.

With `Cc1ccc2c(c1)c1c3n2CC(c2ccncc2)OC(C)CC3(C)CN(C)C1` (stereo not drawn) [Compound 8], the inhibition at 0.1 µM was 55% in experiment [1], 54% in experiment [2], 4% in experiment [3] and 68% in experiment [6]. Besides, the inhibition at 1 µM in experiment [4] came to 13%; in experiment [5], 6%.

As for `Cc1ccc2c(c1)c1c3n2CC(C)(c2ccncc2)OC(C)CC3(C)CN(C)C1` (stereo not drawn) [Compound 9], the inhibition at 0.1 µM amounted to 57% in experiment [1], 73% in experiment [2], 21% in experiment [3] and 87% in experiment [6]. Further, the figures for the inhibition at 1 µM in experiment [4] and in experiment [5] were 2% and 6%, respectively.

The values above are taken from patent US9040519B2, “Fused tetracyclic pyrido [4,3-B] indole and pyrido [3,4-B] indole derivatives and methods of use” (Medivation Technologies, Inc., priority 2010, dated 2015).
